Consider 28 compounds from ChEMBL document CHEMBL5230136, “A review: Biologically active 3,4-heterocycle-fused coumarins” (Eur J Med Chem, 2021).

Bounds are passed on as bounds.

The term IC50 denotes the concentration that inhibits the measured activity by half. Read a high IC50 as a need for much substance.

One test relates to Pseudomonas aeruginosa. The experiment in a line: Antibacterial activity against Pseudomonas aeruginosa assessed as zone of inhibition at 20 mg/ml. It counts as functional. The settings on record: read-out: IZ.
In a further test the test system is Micrococcus luteus. The test can be described thus: Antibacterial activity against Micrococcus luteus assessed as zone of inhibition at 20 mg/ml. The class given is functional. The settings on record: read-out: IZ.
The subject of a further test is Scopulariopsis. The test can be described thus: Antifungal activity against Scopulariopsis assessed as zone of inhibition at 20 mg/ml. As to conditions: read-out: IZ. It counts as functional.
The next test relates to Candida albicans. The experiment in a line: Antifungal activity against Candida albicans assessed as zone of inhibition at 20 mg/ml. It counts as functional. As to conditions: read-out: IZ.
Another test concerns Trichophyton rubrum. The test can be described thus: Antifungal activity against Trichophyton rubrum assessed as zone of inhibition at 20 mg/ml. It counts as functional. As to conditions: read-out: IZ.
For another test, the system named is Bacillus cereus. The test can be described thus: Antibacterial activity against Bacillus cereus assessed as zone of inhibition at 20 mg/ml. The class given is functional. As to conditions: read-out: IZ.
Test [1] relates to Escherichia coli. The experiment in a line: Antibacterial activity against Escherichia coli assessed as zone of inhibition at 20 mg/ml. As to conditions: read-out: IZ. The class given is functional.
In a further test the test system is Geotrichum candidum. The test can be described thus: Antifungal activity against Geotrichum candidum assessed as zone of inhibition at 20 mg/ml. The class given is functional. As to conditions: read-out: IZ.
The test system of a further test is Serratia marcescens. The experiment in a line: Antibacterial activity against Serratia marcescens assessed as zone of inhibition at 20 mg/ml. The class given is functional. The settings on record: read-out: IZ.
In test [2] the test system is Staphylococcus aureus. The experiment in a line: Antibacterial activity against Staphylococcus aureus assessed as zone of inhibition at 20 mg/ml. It counts as functional. The settings on record: read-out: IZ.
For another test, the system named is Aspergillus flavus. The experiment in a line: Antifungal activity against Aspergillus flavus assessed as zone of inhibition at 20 mg/ml. It counts as functional. As to conditions: read-out: IZ.
The subject of a further test is Fusarium oxysporum. The test can be described thus: Antifungal activity against Fusarium oxysporum assessed as zone of inhibition at 20 mg/ml. It counts as functional. The settings on record: read-out: IZ.
For a further test, the system named is MCF7. The test can be described thus: Cytotoxicity against human MCF7 cells […] by MTT reduction assay. The class given is functional, cell-based. Background: Formazan colour is commonly taken as a measure of viable cells.
A further test concerns LS180. The test can be described thus: cells. As to conditions: Homo sapiens.
A further test deals with HeLa. The test can be described thus: cells. The settings on record: Homo sapiens.
The subject of a further test is K562. The experiment in a line: cells. As to conditions: Homo sapiens.
In the next test the test system is Bacillus subtilis. The test can be described thus: Antibacterial activity against Bacillus subtilis assessed as zone of inhibition at 100 ug/ml. As to conditions: read-out: IZ. The class given is functional.
The test system of test [3] is Escherichia coli. The experiment in a line: Antibacterial activity against Escherichia coli assessed as zone of inhibition at 100 ug/ml. The class given is functional. The settings on record: read-out: IZ.
Test [4] has as its system Staphylococcus aureus. The experiment in a line: Antibacterial activity against Staphylococcus aureus assessed as zone of inhibition at 100 ug/ml. The class given is functional. The settings on record: read-out: IZ.
The next test has as its system Salmonella typhimurium. The test can be described thus: Antibacterial activity against Salmonella typhimurium DT104 assessed as zone of inhibition at 100 ug/ml. The class given is functional, Salmonella enterica subsp. enterica serovar Typhimurium. The settings on record: Salmonella enterica, read-out: IZ.

Description for HeLa: Cytotoxicity against human HeLa cells at 50 uM by MTT reduction assay
Description for K562: Cytotoxicity against human K562 cells at 50 uM by MTT reduction assay
Description for LS180: Cytotoxicity against human LS180 cells at 50 uM by MTT reduction assay

`O=C(N[C@H](CO)[C@H](O)c1ccc([N+](=O)[O-])cc1)C(Cl)Cl` [CHLORAMPHENICOL]: the zone of inhibition at 20000 µg/mL is 18 mm with Pseudomonas aeruginosa; 20 mm in the test on Micrococcus luteus; 20 mm with Scopulariopsis; 20 mm with Candida albicans; 36 mm in the test with Trichophyton rubrum; 22 mm in the test on Bacillus cereus. Moreover, the zone of inhibition at 20000 µg/mL with Escherichia coli [1] stood at 18 mm; with Geotrichum candidum it was 24 mm; with Serratia marcescens, 20 mm; in the test on Staphylococcus aureus [2], 18 mm; with Aspergillus flavus it was 44 mm; in the test on Fusarium oxysporum, 28 mm.

As to `COc1ccc(-c2c3c(nc4c2c(=O)oc2ccccc24)CCCC3=O)cc1`, the 50% inhibitory concentration (IC50) in the test on MCF7 was 62 µM; in the test on LS180, > 100 µM; with HeLa, 98.5 µM; with K562, > 100 µM.

As to `Cc1ccccc1-c1c2c(nc3c1c(=O)oc1ccccc13)CCCC2=O`, the IC50 in the test on MCF7, in the test with LS180, in the test on HeLa and with K562 was > 100 µM throughout.

For `CCOC(=O)c1sc2c(c1NC(=O)CN1CCOCC1)c(=O)oc1ccccc12`, the zone of inhibition at 20000 µg/mL in the test with Pseudomonas aeruginosa was 9 mm; in the test on Micrococcus luteus, 0 mm; in the test with Scopulariopsis, 0 mm; in the test on Candida albicans, 0 mm; in the test with Trichophyton rubrum, 0 mm; in the test with Bacillus cereus it was 0 mm. Also, the zone of inhibition at 20000 µg/mL in the test with Escherichia coli [1], in the test with Geotrichum candidum, with Serratia marcescens, with Staphylococcus aureus [2], with Aspergillus flavus and in the test on Fusarium oxysporum was 0 mm throughout.

For `Cc1cccc(-c2c3c(nc4c2c(=O)oc2ccccc24)CCCC3=O)c1`, the half-inhibitory concentration (IC50) with LS180 was > 100 µM; in the test with HeLa it was > 100 µM; in the test on K562, 57.4 µM.

`CCOC(=O)c1sc2c(c1NC(=O)CNc1ccc(S(=O)(=O)NN=N)cc1)c(=O)oc1ccccc12`: the zone of inhibition at 20000 µg/mL in the test with Pseudomonas aeruginosa was 9 mm; in the test on Micrococcus luteus, 0 mm; in the test on Scopulariopsis it was 0 mm; in the test on Candida albicans it was 13 mm; with Trichophyton rubrum, 0 mm; in the test with Bacillus cereus, 0 mm. The zone of inhibition at 20000 µg/mL with Escherichia coli [1] stood at 9 mm; with Geotrichum candidum it was 0 mm; in the test with Serratia marcescens, 0 mm; with Staphylococcus aureus [2], 10 mm; in the test with Aspergillus flavus, 0 mm; with Fusarium oxysporum, 0 mm.

With `Cc1ccc2c(c1)oc(=O)c1c(-c3cn(-c4ccccc4)nc3-c3ccccc3)cc(-c3c(O)c(Cl)cc(Br)c3O)nc12`, the zone of inhibition at 100 µg/mL was determined as 16 mm in the test on Bacillus subtilis, 19 mm in the test on Escherichia coli [3], 18 mm in the test with Staphylococcus aureus [4] and 12 mm in the test on Salmonella typhimurium.

Take `Cc1ccc2c(c1)oc(=O)c1c(-c3cn(-c4ccccc4)nc3-c3ccccc3)cc(-c3c(O)c(C)cc(I)c3O)nc12`: the zone of inhibition at 100 µg/mL in the test on Bacillus subtilis was determined as 18 mm; in the test with Escherichia coli [3], 18 mm; in the test with Staphylococcus aureus [4], 15 mm; with Salmonella typhimurium, 12 mm.

As for `Cc1ccc2c(c1)oc(=O)c1c(-c3cn(-c4ccccc4)nc3-c3ccccc3)cc(-c3c(O)ccc(Cl)c3O)nc12`, the zone of inhibition at 100 µg/mL with Bacillus subtilis was 18 mm; in the test on Escherichia coli [3], 21 mm; in the test with Staphylococcus aureus [4], 19 mm; with Salmonella typhimurium, 20 mm.

Regarding `Cc1ccc2c(c1)oc(=O)c1c(-c3cn(-c4ccccc4)nc3-c3ccccc3)cc(-c3c(O)ccc(Cl)c3Cl)nc12`, the zone of inhibition at 100 µg/mL stood at 10 mm in the test on Bacillus subtilis, 12 mm with Escherichia coli [3], 8 mm in the test on Staphylococcus aureus [4] and 10 mm in the test on Salmonella typhimurium.

`Cc1ccc2c(c1)oc(=O)c1c(-c3cn(-c4ccccc4)nc3-c3ccccc3)cc(-c3c(O)c(Cl)cc(I)c3O)nc12`: the zone of inhibition at 100 µg/mL in the test on Bacillus subtilis was 22 mm; in the test with Escherichia coli [3], 20 mm; with Staphylococcus aureus [4] it was 19 mm; in the test on Salmonella typhimurium, 16 mm.

Consider `Cc1ccc2c(c1)oc(=O)c1c(-c3cn(-c4ccccc4)nc3-c3ccccc3)cc(-c3ccc(Cl)cc3Cl)nc12`, for which the zone of inhibition at 100 µg/mL with Bacillus subtilis stood at 19 mm; with Escherichia coli [3], 21 mm; in the test with Staphylococcus aureus [4], 16 mm; in the test with Salmonella typhimurium, 19 mm.

In the case of `Cc1ccc2c(c1)oc(=O)c1c(-c3cn(-c4ccccc4)nc3-c3ccccc3)cc(-c3c(O)c(I)c(C)c(Cl)c3Cl)nc12`, the zone of inhibition at 100 µg/mL in the test on Bacillus subtilis turned out to be 12 mm; in the test with Escherichia coli [3], 9 mm; in the test with Staphylococcus aureus [4], 15 mm; in the test on Salmonella typhimurium it was 12 mm.

For `O=C1CCCc2nc3c(c(-c4cccc(Br)c4)c21)c(=O)oc1ccccc13`, the IC50 was 31.4 µM with MCF7, > 100 µM with LS180, 83.6 µM in the test with HeLa and 38.8 µM in the test with K562.

For `O=C1CCCc2nc3c(c(-c4ccc(Br)cc4)c21)c(=O)oc1ccccc13`, the IC50 was 46.2 µM in the test on MCF7, > 100 µM with LS180, 47.3 µM in the test with HeLa and 47.5 µM in the test with K562.

Turning to `COc1cccc(-c2c3c(nc4c2c(=O)oc2ccccc24)CCCC3=O)c1`, the half-maximal inhibitory concentration (IC50) with MCF7, in the test with LS180, in the test with HeLa and with K562 was > 100 µM in each case.

Turning to `Cc1ccc2c(c1)oc(=O)c1c(-c3cn(-c4ccccc4)nc3-c3ccccc3)cc(-c3c(O)c(Cl)c(O)c(Cl)c3Cl)nc12`, the zone of inhibition at 100 µg/mL with Bacillus subtilis worked out at 22 mm; with Escherichia coli [3], 22 mm; in the test with Staphylococcus aureus [4], 18 mm; with Salmonella typhimurium it was 20 mm. Moreover, the zone of inhibition at 20000 µg/mL in the test on Escherichia coli [1] and in the test with Staphylococcus aureus [2] was 22 mm in each case.

On to `Cc1ccc2c(c1)oc(=O)c1c(-c3cn(-c4ccccc4)nc3-c3ccccc3)cc(-c3c(O)cc(C)c(Cl)c3Cl)nc12`, for which the zone of inhibition at 100 µg/mL was 14 mm in the test on Bacillus subtilis, 8 mm in the test on Escherichia coli [3], 7 mm with Staphylococcus aureus [4] and 10 mm with Salmonella typhimurium.

With `Cc1ccc2c(c1)oc(=O)c1c(-c3cn(-c4ccccc4)nc3-c3ccccc3)cc(-c3c(O)cc(O)cc3Cl)nc12`, the zone of inhibition at 100 µg/mL in the test on Bacillus subtilis was 14 mm; with Escherichia coli [3] it was 19 mm; in the test with Staphylococcus aureus [4] it was 10 mm; with Salmonella typhimurium it was 12 mm.

Take `O=C1CCCc2nc3c(c(-c4ccccc4Cl)c21)c(=O)oc1ccccc13`: the concentration for half-maximal inhibition (IC50) in the test on MCF7, with LS180, with HeLa and with K562 was > 100 µM throughout.

In the case of `O=C1CCCc2nc3c(c(-c4cccc(Cl)c4)c21)c(=O)oc1ccccc13`, the IC50 in the test with MCF7 was 71.7 µM; in the test on LS180, > 100 µM; with HeLa, > 100 µM; with K562, 50.7 µM.

On to `CC1(C)S[C@@H]2[C@H](NC(=O)Cc3ccccc3)C(=O)N2[C@H]1C(=O)O` [PENICILLIN G], for which the zone of inhibition at 100 µg/mL with Bacillus subtilis worked out at 24 mm; in the test with Escherichia coli [3], 22 mm; in the test with Staphylococcus aureus [4], 24 mm; with Salmonella typhimurium, 22 mm.

Regarding `Cc1ccc2c(c1)oc(=O)c1c(-c3cn(-c4ccccc4)nc3-c3ccccc3)cc(-c3c(O)c(Br)cc(Cl)c3Cl)nc12`, the zone of inhibition at 100 µg/mL was determined as 20 mm in the test with Bacillus subtilis, 19 mm with Escherichia coli [3], 21 mm in the test on Staphylococcus aureus [4] and 22 mm with Salmonella typhimurium.

For `COc1ccccc1-c1c2c(nc3c1c(=O)oc1ccccc13)CCCC2=O`, the IC50 in the test on MCF7, with LS180, in the test on HeLa and with K562 was > 100 µM throughout.

For the compound `O=C1CCCc2nc3c(c(-c4ccc(Cl)cc4)c21)c(=O)oc1ccccc13`, the IC50 in the test on MCF7 is 41.8 µM; with LS180, > 100 µM; in the test on HeLa it was 37.7 µM; in the test on K562, 37.5 µM.

Turning to `Cc1ccc2c(c1)oc(=O)c1c(-c3cn(-c4ccccc4)nc3-c3ccccc3)cc(-c3c(O)c(I)cc(Cl)c3Cl)nc12`, the zone of inhibition at 100 µg/mL in the test on Bacillus subtilis was determined as 8 mm; with Escherichia coli [3], 18 mm; with Staphylococcus aureus [4], 16 mm; with Salmonella typhimurium it was 14 mm.

Regarding `O=C1CCCc2nc3c(c(-c4ccc([N+](=O)[O-])cc4)c21)c(=O)oc1ccccc13`, the 50% inhibitory concentration (IC50) with MCF7 was > 100 µM; with LS180 it was > 100 µM; in the test on HeLa it was 88.2 µM; in the test with K562, 43.8 µM.

For `Cc1ccc(-c2c3c(nc4c2c(=O)oc2ccccc24)CCCC3=O)cc1`, the IC50 with MCF7 was 66.7 µM; in the test on LS180, > 100 µM; in the test with HeLa, 43.6 µM; in the test with K562 it was 56.2 µM.
